Patent US20240246932A1 (Merck Sharp & Dohme LLC, priority 2021, published 2024)

Target: human NaV 1.8 channels stably expressed in HEK 293 cells (Homo sapiens (Human), UniProt Q9Y5Y9)
Experiment: Nav1.8 Qube automated patch-clamp assay
Assay type: cell-based
Conditions: human NaV1.8 in HEK 293 cells, whole-cell voltage clamp, room temperature; read-out: IC50 values (nM) for Examples in the Nav1.8 Qube Assay
Procedure: Compounds were tested on human NaV 1.8 and NaV1.5 channels stably expressed in human embryo kidney (HEK) 293 cells. Sodium current measurements on Qube® were conducted as follows: automated 384-well patch-clamp assays on the Qube® platform (Sophion Biosciences) were used to measure the inhibition of sodium flow through human NaV1.8 and NaV1.5 channels. Whole-cell voltage-clamp recordings were performed in QChips® (Sophion Biosciences) at room temperature. NaV1.8 current measurements on Qube® were obtained as follows: NaV1.8 currents were elicited with a 10 second 1 Hertz (Hz) pulse train from a holding potential of −90 millivolts (mV), delivered to the cells once per minute in the control condition (DMSO only) and after compound addition. The 1 hertz pulse train stimulation consisted of ten test pulses to 10 millivolt (mV) for 20 milliseconds (ms), each of which was followed by a 980 millisecond repolarization to −67 millivolts. At the end of the 10 second pulse train stimulation, a 5 second hyperpolarization step to −100 millivolt (mV) was used to recover NaV1.8 from fast inactivation. The peak currents elicited by the 1st and 10th test pulses were used to determine IC50 values for resting inhibition and inactivated state inhibition. NaV1.5 current measurements on Qube® were obtained as follows: NaV1.5 currents were elicited with a 20 second 3 Hertz pulse train in the control condition (DMSO only) and after compound addition. The pulse train consisted of sixty 20 millisecond test pulses to 0 millivolt from a holding potential of −80 millivolt (mV). The average peak currents elicited by the last 3 test pulses were used to determine IC50 values for NaV1.5 inhibition.
The following buffers were used for the Qube® recordings: External buffer for NaV1.8 Qube® recording: 150 NaCl, 2 CaCl2, 5 KCl, 1 MgCl2, 10 HEPES, 12 Dextrose; External buffer for Qube® NaV1.5 recording: 120 N-Methyl-D-Glucamine, 40 NaCl, 1 KCl, 2.7 CaCl2), 5 HEPES, 0.5 MgCl2; and Internal buffer for Qube® recording: 120 CsF, 30 CsCl, 10 EGTA, 5 HEPES, 5 NaF, 2 MgCl2.
For all Qube® experiments offline analysis was used to determine percent inhibition as a function of drug concentration. IC50 values were determined by fitting to the Hill equation.

Chain of human NaV 1.8 channels stably expressed in HEK 293 cells (Q9Y5Y9 whole entry): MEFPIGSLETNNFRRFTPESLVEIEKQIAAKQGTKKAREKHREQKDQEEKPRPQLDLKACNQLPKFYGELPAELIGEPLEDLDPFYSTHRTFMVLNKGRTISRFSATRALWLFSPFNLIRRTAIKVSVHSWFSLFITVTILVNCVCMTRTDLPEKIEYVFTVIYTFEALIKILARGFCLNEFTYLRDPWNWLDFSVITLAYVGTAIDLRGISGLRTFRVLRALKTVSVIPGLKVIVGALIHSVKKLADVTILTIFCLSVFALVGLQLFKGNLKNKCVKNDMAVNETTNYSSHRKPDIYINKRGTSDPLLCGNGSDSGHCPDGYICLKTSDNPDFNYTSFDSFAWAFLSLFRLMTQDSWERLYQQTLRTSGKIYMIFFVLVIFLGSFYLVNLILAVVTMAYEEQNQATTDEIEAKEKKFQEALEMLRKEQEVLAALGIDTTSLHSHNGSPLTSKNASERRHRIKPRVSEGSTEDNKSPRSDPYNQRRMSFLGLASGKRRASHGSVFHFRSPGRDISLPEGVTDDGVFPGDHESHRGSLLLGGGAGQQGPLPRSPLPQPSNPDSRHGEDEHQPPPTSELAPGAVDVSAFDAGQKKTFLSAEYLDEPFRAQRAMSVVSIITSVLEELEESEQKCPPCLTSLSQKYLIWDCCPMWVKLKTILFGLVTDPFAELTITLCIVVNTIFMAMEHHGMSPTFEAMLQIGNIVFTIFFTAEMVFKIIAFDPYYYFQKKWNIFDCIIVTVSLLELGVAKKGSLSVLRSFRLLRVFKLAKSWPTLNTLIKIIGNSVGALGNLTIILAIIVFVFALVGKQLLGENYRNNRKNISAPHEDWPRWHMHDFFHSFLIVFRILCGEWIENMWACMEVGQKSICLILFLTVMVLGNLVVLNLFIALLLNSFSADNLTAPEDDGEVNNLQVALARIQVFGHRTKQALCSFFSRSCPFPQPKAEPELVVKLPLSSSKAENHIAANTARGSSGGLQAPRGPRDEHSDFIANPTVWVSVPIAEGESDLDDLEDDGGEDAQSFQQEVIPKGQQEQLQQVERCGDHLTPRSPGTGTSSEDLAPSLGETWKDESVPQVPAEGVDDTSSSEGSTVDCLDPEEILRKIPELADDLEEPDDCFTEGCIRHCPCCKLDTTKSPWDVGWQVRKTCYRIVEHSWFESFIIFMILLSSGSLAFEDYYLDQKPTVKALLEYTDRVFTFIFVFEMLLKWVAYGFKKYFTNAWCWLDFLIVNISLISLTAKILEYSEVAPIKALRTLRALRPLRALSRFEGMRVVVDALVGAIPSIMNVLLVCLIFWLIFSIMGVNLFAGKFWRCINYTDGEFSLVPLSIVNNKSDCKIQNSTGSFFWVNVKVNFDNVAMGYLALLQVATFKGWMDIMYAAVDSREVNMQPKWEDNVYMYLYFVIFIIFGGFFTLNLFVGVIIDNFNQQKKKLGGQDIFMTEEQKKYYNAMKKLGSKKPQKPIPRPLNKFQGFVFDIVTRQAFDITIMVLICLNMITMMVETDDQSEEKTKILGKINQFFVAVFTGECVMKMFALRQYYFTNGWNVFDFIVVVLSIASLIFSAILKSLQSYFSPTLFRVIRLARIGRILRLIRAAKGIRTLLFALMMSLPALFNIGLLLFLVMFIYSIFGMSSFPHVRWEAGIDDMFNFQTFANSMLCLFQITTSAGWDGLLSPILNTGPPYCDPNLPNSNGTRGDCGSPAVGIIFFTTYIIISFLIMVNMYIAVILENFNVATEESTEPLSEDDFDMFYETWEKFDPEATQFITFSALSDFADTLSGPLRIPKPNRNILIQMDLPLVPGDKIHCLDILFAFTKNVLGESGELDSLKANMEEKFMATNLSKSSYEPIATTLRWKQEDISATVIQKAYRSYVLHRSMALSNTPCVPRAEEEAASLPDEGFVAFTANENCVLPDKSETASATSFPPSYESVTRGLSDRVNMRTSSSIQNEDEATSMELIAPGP

`C[C@@H]1C(=O)NCCN1C(=O)NC(c1cnc(OCC(F)(F)F)nc1)c1ccc(F)c(Cl)c1F` (single isomer, unassigned) [Example 12A] gave an IC50 of 9.24 nM.
`C[C@@H]1C(=O)NCCN1C(=O)NC(c1cnc(OCC(F)(F)F)s1)c1ccc(F)c(Cl)c1F` (single isomer, unassigned) [Example 13A, (2R)-N-((R or S)-(3-chloro-2,4-difluoro-phenyl)(2-(2,2,2-tri-fluoroethoxy)thiazol-5-yl)methyl)-2-methyl-3-oxopiperazine-1-carboxamide] was tested, and the IC50 was 2.13 nM.
`C[C@@H]1C(=O)NCCN1C(=O)NC(c1ccc(F)c(Cl)c1)c1ccc2nc(C(F)(F)F)cn2c1` (single isomer, unassigned) [Example 11A, (2R)-N-((R or S)-(3-chloro-4-fluoro-phenyl)(2-(trifluoro-methyl)imidazo[1,2-a]pyridin-6-yl)-methyl)-2-methyl-3-oxopiperazine-1-carboxamide] was tested, and the IC50 was 67.4 nM.
With `CC(C)C1C(=O)NCCN1C(=O)NC(c1ccc(C(F)(F)F)nc1)c1ccc(F)c(Cl)c1F` (single isomer, unassigned) [Example 39A, N-((R or S)-(3-chloro-2,4-difluorophenyl)(6-(trifluoromethyl)pyridin-3-yl)methyl)-(R or S)-2-isopropyl-3-oxo-piperazine-1-carboxamide] the IC50 was 2630 nM.
`C[C@@H]1C(=O)NCCN1C(=O)NC(c1ccc(F)c(Cl)c1)c1cnc(C(F)(F)F)c(Cl)c1` (single isomer, unassigned) [Example 26A, (2R)-N-((R or S)-(3-chloro-4-fluoro-phenyl)(5-chloro-6-(trifluoromethyl)pyridin-3-yl)methyl)-2-methyl-3-oxopiperazine-1-carboxamide] gave an IC50 of 1.89 nM.
For `C[C@@H]1C(=O)NCCN1C(=O)NC(c1cnc(C2CC2)c(Cl)c1)c1ccc(F)c(Cl)c1F` (single isomer, unassigned) [Example 27A, (2R)-N-((R or S)-(3-chloro-2,4-difluoro-phenyl)(5-chloro-6-cyclopropylpyridin-3-yl)methyl)-2-methyl-3-oxopiperazine-1-carboxamide], the IC50 was 52.6 nM.
`C[C@@H]1C(=O)NCCN1C(=O)NC(c1ccc(OC(F)(F)F)cc1)c1cc(C(F)(F)F)n[nH]1` (single isomer, unassigned) [Example 87A, (2R)-2-methyl-3-oxo-N-((R or S)-(4-(trifluoromethoxy)phenyl)(3-(trifluoromethyl)-1H-pyrazol-5-yl)methyl)piperazine-1-carboxamide] gave an IC50 of 124 nM.
`C[C@@H]1C(=O)NCCN1C(=O)NC(c1ccc(OC(F)F)nc1)c1ccc(F)c(Cl)c1` (single isomer, unassigned) [Example 73B, (2R)-N-((R or S)-(3-chloro-4-fluoro-phenyl)(6-(difluoro-methoxy)pyridin-3-yl)methyl)-2-methyl-3-oxopiperazine-1-carboxamide] was tested, and the IC50 was 20.6 nM.
`C[C@@H]1C(=O)NCCN1C(=O)NC(c1ccc(F)c(Cl)c1)c1ccc(F)c(OCC(F)(F)F)n1` (single isomer, unassigned) [Example 70B] gave an IC50 of 6.87 nM.
Compound `C[C@@H]1C(=O)NCCN1C(=O)NC(c1ccc(OC2CC2)c(F)c1)c1cnc(C(F)(F)F)c(Cl)c1` (single isomer, unassigned) [Example 25A, (2R)-N-((R or S)-(5-chloro-6-(trifluoro-methyl)pyridin-3-yl)(4-cyclopropoxy-3-fluorophenyl)methyl)-2-methyl-3-oxopiperazine-1-carboxamide] has an IC50 of 3.51 nM.
In the case of `C[C@@H]1C(=O)NCCN1C(=O)NC(c1ccc(Cl)cc1)c1ccc(C(F)(F)F)nc1` (single isomer, unassigned) [Example 17B, (2R)-N-((S or R)-(4-chlorophenyl)(6-(trifluoromethyl)pyridin-3-yl)methyl)-2-methyl-3-oxopiperazine-1-carboxamide], the IC50 is reported as 34.6 nM.
